According to patent EP0476645B1, “Calcium uptake inhibitors” (MERRELL DOW PHARMACEUTICALS INC., priority 1990, dated 1992):

Tested on: Rat PMNL
Assay: Measurement of intracellular calcium in fMLP-stimulated PMNL preloaded with Fura-2
Assay type: cell-based
Details: fMLP stimulus, preincubation with compound 15 minutes at 37°C, concentrations in figure 1
Description: Rat PMNL were obtained from exudates resulting from peritoneal injection of 6 mL of 8% sodium caseinate. Eighteen hours after injection rats were killed by carbon dioxide inhalation and the peritoneal cavity lavaged with Hank's balanced salt solution (HBSS). After concentration of the PMNL by centrifugation, contaminating erythrocytes were removed by hypotonic lysis. The PMNL were then washed twice by centrifugation (400 x g for 10 minutes) and resuspended in HBSS. Cell viability was greater than 90% by Trypan Blue exclusion and greater than 90% of the cells were PMNL by Wright-Giemsa stain.
Intracellular calcium levels were obtained using Fura-2 as fluorescent indicator (Grynkiewicz et al., 1985). Fura-2 was loaded into PMNL as the acetoxymethyl ester (Fura-2/AM) using the method of Korchak et al., (1988). Specifically, 1 X 10⁸ PMNL/mL were incubated in HBSS with 10 µM Fura-2/AM for 10 minutes at 37°C. The cells suspension was then diluted ten fold with HBSS and further incubated for another 20 minutes. The cells were then centrifuged (400 x g for 8 minutes at 25°C) and the PMNL (1 x 10⁷ cells/mL) resuspended in HBSS containing 1% bovine serum albumin. Cells were stored at room temperature and used within 3 hours.
Intracellular calcium level determinations were made using a dual wavelength spectrofluorometer (Photon Technology International, New Brunswick, NJ). Two mL of PMNL suspension (1 x 10⁷ cells/mL) were stirred magnetically at 37°C. Cells were preincubated with the compounds for 15 minutes at 37°C prior to activation. Where compounds were dissolved in DMSO and added directly, the DMSO never exceeded 0.3% in the final cell suspension. Total change in volume with addition of compounds or vehicle and stimuli never exceeded 3%. Intracellular calcium concentrations were calibrated by setting a maximum calcium level in the cells with the addition of 7 µM ionomycin to PMNL in HBSS containing 1% BSA. This was followed by treatment with 20 mM EGTA for 1 hour to obtain a minimum calcium level. […]

For CN(C)c1ccc(C(=O)C#Cc2ccncn2)cc1 [MDL 102,387, 1-(4-dimethylaminophenyl)-3-(4-pyrimidinyl)-2-propyne-1-one], the “suppression of the second wave of intracellular calcium changes” value was “selective concentration-dependent suppression”.
